Earlier results as cited in patent US7994166B2, “Pyrrolidinone benzenesulfonamide derivatives as modulators of ion channels for the treatment of pain” (Vertex Pharmaceuticals Incorporated, priority 2007, dated 2011).

Molecular target: NaV1.8 (Homo sapiens, UniProt Q9Y5Y9)
Details: read-out: TTX IC50

Chain of NaV1.8 (Q9Y5Y9 whole entry, looked up): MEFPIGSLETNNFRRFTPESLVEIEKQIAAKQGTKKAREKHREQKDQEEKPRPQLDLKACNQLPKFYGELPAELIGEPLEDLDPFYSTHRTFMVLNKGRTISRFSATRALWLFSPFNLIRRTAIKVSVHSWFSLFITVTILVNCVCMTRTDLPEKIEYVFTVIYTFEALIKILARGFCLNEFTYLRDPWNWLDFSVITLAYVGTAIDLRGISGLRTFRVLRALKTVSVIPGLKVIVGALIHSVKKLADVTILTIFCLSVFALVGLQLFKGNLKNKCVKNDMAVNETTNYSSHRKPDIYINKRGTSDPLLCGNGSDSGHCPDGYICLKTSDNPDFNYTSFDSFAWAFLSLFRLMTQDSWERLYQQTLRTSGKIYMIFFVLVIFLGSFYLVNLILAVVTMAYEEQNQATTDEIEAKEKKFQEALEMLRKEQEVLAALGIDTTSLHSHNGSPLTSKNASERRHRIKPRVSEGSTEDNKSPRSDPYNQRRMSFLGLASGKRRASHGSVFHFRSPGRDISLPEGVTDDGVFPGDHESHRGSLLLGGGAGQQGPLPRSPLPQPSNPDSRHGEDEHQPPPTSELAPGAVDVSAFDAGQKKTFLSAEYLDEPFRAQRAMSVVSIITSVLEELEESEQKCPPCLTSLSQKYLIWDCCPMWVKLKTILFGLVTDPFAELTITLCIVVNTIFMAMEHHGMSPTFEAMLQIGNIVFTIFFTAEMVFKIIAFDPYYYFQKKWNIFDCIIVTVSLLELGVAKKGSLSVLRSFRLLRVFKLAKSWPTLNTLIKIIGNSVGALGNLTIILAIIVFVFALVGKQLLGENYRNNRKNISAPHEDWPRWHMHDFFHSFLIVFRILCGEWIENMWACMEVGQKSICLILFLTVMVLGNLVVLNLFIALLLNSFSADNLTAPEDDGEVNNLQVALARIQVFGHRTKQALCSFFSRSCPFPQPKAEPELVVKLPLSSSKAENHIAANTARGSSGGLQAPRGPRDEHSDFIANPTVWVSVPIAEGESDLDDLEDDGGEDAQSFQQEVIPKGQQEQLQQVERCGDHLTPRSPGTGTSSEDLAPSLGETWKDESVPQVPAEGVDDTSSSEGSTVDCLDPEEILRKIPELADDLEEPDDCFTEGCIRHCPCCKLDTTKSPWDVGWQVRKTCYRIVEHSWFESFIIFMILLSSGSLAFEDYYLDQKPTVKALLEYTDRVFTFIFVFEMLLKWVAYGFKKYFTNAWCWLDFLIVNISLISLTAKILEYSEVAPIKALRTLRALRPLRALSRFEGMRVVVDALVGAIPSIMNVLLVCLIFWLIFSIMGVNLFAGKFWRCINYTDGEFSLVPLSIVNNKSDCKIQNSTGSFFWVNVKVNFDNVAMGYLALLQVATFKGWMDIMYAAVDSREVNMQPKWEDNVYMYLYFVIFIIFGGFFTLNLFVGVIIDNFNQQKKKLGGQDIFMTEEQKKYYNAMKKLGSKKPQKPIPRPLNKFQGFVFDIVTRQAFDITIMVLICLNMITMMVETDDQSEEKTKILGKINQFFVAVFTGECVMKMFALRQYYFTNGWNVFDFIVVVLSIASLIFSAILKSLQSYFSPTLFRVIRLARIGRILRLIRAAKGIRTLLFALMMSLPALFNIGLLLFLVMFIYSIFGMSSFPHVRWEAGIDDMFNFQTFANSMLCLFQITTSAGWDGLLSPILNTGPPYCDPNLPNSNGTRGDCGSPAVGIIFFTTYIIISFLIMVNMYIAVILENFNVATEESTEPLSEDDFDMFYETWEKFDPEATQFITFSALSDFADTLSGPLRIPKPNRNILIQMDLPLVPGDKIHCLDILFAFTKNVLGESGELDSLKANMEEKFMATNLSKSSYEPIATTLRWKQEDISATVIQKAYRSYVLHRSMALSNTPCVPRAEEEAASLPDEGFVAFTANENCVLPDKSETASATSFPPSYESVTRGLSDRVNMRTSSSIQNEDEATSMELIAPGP

## NC1=N[C@H](O)[C@H]2[C@H]3O[C@]4(O)O[C@@H]([C@@H](O)[C@@]2(N1)[C@@H]4O)[C@]3(O)CO [TTX, tetrodotoxin]
  IC50: > 50 µM
